Experimental data published in US8569336B2, “Compounds for the treatment of inflammatory disorders” (priority 2008, dated 2013).
Read-outs that look alike come from different tables or passages of the source.

What was measured:
[1] = tested on: TNF-α production from human whole blood; experiment: Inhibition of TNF-α production from human whole blood (hWBA), LPS stimulated, ELISA; format: cell-based; conditions: Homo sapiens, TNF-α by ELISA, read-out: hWBA (IC50)
[2] = molecular target: T1, purified catalytic domain of recombinant human TACE (rhTACEc) (Homo sapiens, UniProt P78536, N452Q/S266A); experiment: TACE kinetic assay: cleavage of internally quenched peptide substrate TNF-FRET 2 (Ki); format: biochemical; conditions: TNF-FRET 2 substrate
T1 construct: 6xHis (C); made in house; host or cells: baculovirus/Hi5 insect cells

[3] = Area under the curve determinations of plasma levels in rats (rrAUC), oral 10 mg/kg; format: in vivo; conditions: for AUC: rat, read-out: RR AUC (rapid rat AUC, rrAUC)
[4] = human whole blood diluted 1:1, LPS stimulated
[5] = plasma, blood collected 0.5-6 h post-dosing
[6] = 3.5 h, human whole blood diluted 1:1, LPS stimulated, 3.5 h
[7] = LPS-stimulated human whole blood

T1 sequence (P78536 215-477 S266A/N452Q): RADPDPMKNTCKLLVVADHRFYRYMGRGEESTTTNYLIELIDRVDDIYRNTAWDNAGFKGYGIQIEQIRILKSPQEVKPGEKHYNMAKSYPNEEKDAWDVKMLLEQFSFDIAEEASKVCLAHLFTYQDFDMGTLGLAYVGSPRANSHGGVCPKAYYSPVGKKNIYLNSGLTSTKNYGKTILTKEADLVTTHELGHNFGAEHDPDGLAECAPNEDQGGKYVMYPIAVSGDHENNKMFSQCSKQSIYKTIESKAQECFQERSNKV

Row | SMILES | IC50 [1, 4] | Ki ([2]; read-out: Ki) | IC50 [1, 6] | AUC ([3]; plasma 0.5-6 h post-dosing) | further results
1 | CCc1nccc2oc([C@]3(CN4Cc5ccc(OC)cc5C4=O)NC(=O)NC3=O)cc12 [Compound 2289] | 358 nM | 0.25 nM |  |  | AUC [3, 5]: 3.56 µM·h
2 | COc1ccc2c(c1F)C(=O)N(C[C@@]1(c3cc4cc(F)cnc4o3)NC(=O)NC1=O)C2 [Compound 2277] |  |  | 499 nM | 26.2 µM·h | Ki ([2]; Ki): 0.505 nM
3 | COc1ccc2c(c1)C(=O)N(C[C@@]1(c3cc4nc(NS(=O)(=O)C5CC5)ccc4o3)NC(=O)NC1=O)C2 [Compound 2318] | 518 nM | 0.579 nM |  |  | RR AUC (rapid rat AUC, rrAUC) ([3]; blood collected 0.5-6 h post-dosing): 0.015 µM·h
4 | COc1ccc2c(c1)C(=O)N(C[C@@]1(c3cc4cc(C(=NO)N5CCN(C6CC6)CC5)ccc4o3)NC(=O)NC1=O)C2 [Compound 2455] | 885 nM | 0.58 nM |  |  | AUC [3, 5]: 0.013 µM·h
5 | COC(=O)Nc1ccc2oc([C@]3(CN4Cc5ccc(OC)cc5C4=O)NC(=O)NC3=O)cc2n1 [Compound 2474] | 549 nM | 0.52 nM |  |  | AUC [3, 5]: 15.5 µM·h
6 | COc1ccc2c(c1)C(=O)N(C[C@@]1(c3cc4c(o3)CCN(C)C4)NC(=O)NC1=O)C2 [Compound 2263] |  | 7.71 nM | ≥ 1000 nM | 0.24 µM·h | 
7 | COc1ccc2c(c1)C(=O)N(C[C@@]1(c3cc4nc(Nc5ncccn5)ccc4o3)NC(=O)NC1=O)C2 [Compound 2169] |  | 0.576 nM | 920 nM | 4.83 µM·h | 
8 | COc1ccc2c(c1)C(=O)N(C[C@@]1(c3cc4c(N5CCCC5=O)nccc4o3)NC(=O)NC1=O)C2 [Compound 2293] | 531 nM | 1.26 nM |  |  | AUC [3, 5]: 0.219 µM·h
9 | COc1ccc2c(c1)C(=O)N(C[C@@]1(c3cc4nc(N(c5cccnc5)C5CCNCC5)ccc4o3)NC(=O)NC1=O)C2 [Compound 2145] |  |  | 174 nM | 0.086 µM·h | Ki ([2]; Ki): 0.547 nM
10 | COc1ccc2c(c1)C(=O)N(C[C@@]1(c3cc4cc(-c5cc(N)n(C)n5)ccc4o3)NC(=O)NC1=O)C2 [Compound 2247] |  |  | 782 nM | 0.375 µM·h | Ki ([2]; Ki): 0.333 nM
11 | COc1ccc2c(c1)C(=O)N(C[C@@]1(c3cc4nc(-c5cncnc5)ccc4o3)NC(=O)NC1=O)C2 [Compound 2147] |  | 0.299 nM | 1080 nM | 2.19 µM·h | 
12 | COc1ccc2c(c1)C(=O)N(C[C@@]1(c3cn4cccnc4n3)NC(=O)NC1=O)C2 [Compound 750] |  |  |  |  | IC50 [1, 7]: 705 nM; Ki ([2]; Ki): 1.91 nM; AUC ([3]; plasma 0.5-6 h): 0.32 µM·h
13 | CNS(=O)(=O)c1cc2oc([C@]3(CN4Cc5ccc(OC)cc5C4=O)NC(=O)NC3=O)cc2cc1C [Compound 2480] | 1390 nM |  |  |  | Ki ([2]; Ki): 0.43 nM; AUC [3, 5]: 0.212 µM·h
14 | COc1ccc2c(c1)C(=O)N(C[C@@]1(c3cc4nc(-n5nc(N)cc5C)ccc4o3)NC(=O)NC1=O)C2 [Compound 2118] |  |  | 3790 nM | 0.527 µM·h | Ki ([2]; Ki): 0.6 nM
15 | COc1ccc2c(c1)C(=O)N(C[C@@]1(c3cc4nc(NS(=O)(=O)C5CC5)ccc4o3)NC(=O)NC1=O)C2 [Compound 1938] |  | 0.58 nM |  |  | IC50 [1, 7]: 518 nM; AUC ([3]; plasma 0.5-6 h): 0.015 µM·h
16 | COc1ccc2c(c1)C(=O)N(C[C@@]1(c3cc4cc(C(=O)N5CCN(C)CC5)ccc4o3)NC(=O)NC1=O)C2 [Compound 2426] | 850 nM |  |  |  | Ki ([2]; Ki): 1.26 nM; AUC [3, 5]: 0.057 µM·h
17 | COc1ccc2c(c1)C(=O)N(C[C@@]1(c3cc4cc(-n5cncn5)ccc4o3)NC(=O)NC1=O)C2 [Compound 2196] |  | 0.645 nM | 1540 nM | 7.06 µM·h | 
18 | COc1ccc2c(c1)C(=O)N(C[C@@]1(c3cc4nc(-c5cccc(C#N)c5)ccc4o3)NC(=O)NC1=O)C2 [Compound 2470] | 803 nM | 0.578 nM |  |  | AUC [3, 5]: 22.1 µM·h
19 | COCCN1CCc2oc([C@]3(CN4Cc5ccc(OC)cc5C4=O)NC(=O)NC3=O)cc2C1 [Compound 2267] |  | 5.27 nM | 1040 nM | 0.278 µM·h | 
20 | COc1ccc2c(c1)C(=O)N(C[C@@]1(c3cc4nc(-n5cccn5)ccc4o3)NC(=O)NC1=O)C2 [Compound 2165] |  |  | 1370 nM | 21 µM·h | Ki ([2]; Ki): 0.405 nM
21 | COc1ccc2c(c1)C(=O)N(C[C@@]1(c3cc4cc(NC(=O)N(C)C)ccc4o3)NC(=O)NC1=O)C2 [Compound 2228] |  | 0.839 nM | 2370 nM | 0.129 µM·h | 
22 | COc1ccc2c(c1)C(=O)N(C[C@@]1(c3cc4nc(-c5ccncc5)ccc4o3)NC(=O)NC1=O)C2 [Compound 2110] |  | 0.62 nM | 351 nM | 10.5 µM·h | 

Second part, led by results:

Row | IC50 [1, 4] | Ki ([2]; read-out: Ki) | IC50 [1, 6] | AUC ([3]; plasma 0.5-6 h post-dosing) | SMILES | further results
23 |  | 0.34 nM | 885 nM | 3.53 µM·h | COc1ccc2c(c1)C(=O)N(C[C@@]1(c3cc4nc(N5CCCCC5)ccc4o3)NC(=O)NC1=O)C2 [Compound 2168] | 
24 |  | 0.545 nM | 180 nM | 1.19 µM·h | COc1ccc2c(c1)C(=O)N(C[C@@]1(c3cc4nc(N5C[C@H](O)CC5=O)ccc4o3)NC(=O)NC1=O)C2 [Compound 2158] | 
25 |  | 0.468 nM | 200 nM | 3.92 µM·h | COc1ccc2c(c1F)C(=O)N(C[C@@]1(c3cc4ncccc4o3)NC(=O)NC1=O)C2 [Compound 2203] | 
26 | 673 nM | 0.29 nM |  |  | COc1ccc2c(c1F)C(=O)N(C[C@@]1(c3cc4cc5c(c(C)c4o3)C(=O)NC5)NC(=O)NC1=O)C2 [Compound 2497] | AUC [3, 5]: 1.05 µM·h
27 |  | 0.59 nM |  |  | COc1ccc2c(c1F)C(=O)N(C[C@@]1(c3cc4nc(N5CCN(C)C5=O)c(F)cc4o3)NC(=O)NC1=O)C2 [Compound 1329] | IC50 [1, 7]: 234 nM; AUC ([3]; plasma 0.5-6 h): 0.226 µM·h
28 | 151 nM | 0.6 nM |  |  | COc1ccc2c(c1F)C(=O)N(C[C@@]1(c3cc4c5c(ccc4o3)CNC5=O)NC(=O)NC1=O)C2 [Compound 2505] | AUC [3, 5]: 1.12 µM·h
29 | 197 nM | 0.37 nM |  |  | COc1ccc2c(c1F)C(=O)N(C[C@@]1(c3cc4cnccc4o3)NC(=O)NC1=O)C2 [Compound 2310] | AUC [3, 5]: 2.31 µM·h
30 |  | 0.74 nM |  |  | COc1ccc2c(c1F)C(=O)N(C[C@@]1(c3cc4nc(C)c(F)cc4o3)NC(=O)NC1=O)C2 [Compound 1312] | IC50 [1, 7]: 911 nM; AUC ([3]; plasma 0.5-6 h): 38.3 µM·h
31 |  | 2.79 nM |  |  | COc1ccc2c(c1F)C(=O)N(C[C@@]1(c3cc4nc(N5CCC(OC)(OC)CC5)ccc4o3)NC(=O)NC1=O)C2 [Compound 1715] | IC50 [1, 7]: 480 nM; AUC ([3]; plasma 0.5-6 h): 0.199 µM·h
32 |  | 0.974 nM | 507 nM | 0.522 µM·h | COc1ccc2c(c1F)C(=O)N(C[C@@]1(c3cc4nc(N5CCCNC5=O)ccc4o3)NC(=O)NC1=O)C2 [Compound 2146] | 
33 |  | 0.63 nM |  |  | COc1ccc2c(c1F)C(=O)N(C[C@@]1(c3cc4cc([C@@]5(C)NC(=O)NC5=O)c(F)cc4o3)NC(=O)NC1=O)C2 (single isomer, unassigned) [Compound 1326] | IC50 [1, 7]: 156 nM; AUC ([3]; plasma 0.5-6 h): 1.04 µM·h
34 |  | 0.5 nM |  |  | COc1ccc2c(c1F)C(=O)N(C[C@@]1(c3cc4nc(N5C[C@@H](O)CC5=O)ccc4o3)NC(=O)NC1=O)C2 [Compound 1501] | IC50 [1, 7]: 131 nM; AUC ([3]; plasma 0.5-6 h): 0.667 µM·h
35 | 72 nM | 0.33 nM |  |  | COc1ccc2c(c1F)C(=O)N(C[C@@]1(c3cc4cc5c(c(F)c4o3)C(=O)NC5)NC(=O)NC1=O)C2 [Compound 2499] | AUC [3, 5]: 1.08 µM·h
36 |  | 1.3 nM |  |  | COc1ccc2c(c1)C(=O)N(C[C@@]1(c3cc4nc(N5CCCCC5=O)ccc4o3)NC(=O)NC1=O)C2 [Compound 1512] | IC50 [1, 7]: 1550 nM; AUC ([3]; plasma 0.5-6 h): 0.303 µM·h
37 |  | 0.3 nM |  |  | COc1ccc2c(c1F)C(=O)N(C[C@@]1(c3cc4nc(N5CCC5=O)ccc4o3)NC(=O)NC1=O)C2 [Compound 1522] | IC50 [1, 7]: 211 nM; AUC ([3]; plasma 0.5-6 h): 4.63 µM·h
38 |  | 0.758 nM |  |  | COc1ccc2c(c1F)C(=O)N(C[C@@]1(c3cc4cc(C5(C)NC(=O)NC5=O)cnc4o3)NC(=O)NC1=O)C2 (stereo partly drawn) [Compound 504] | IC50 [1, 7]: 239 nM; AUC ([3]; plasma 0.5-6 h): 3.66 µM·h
39 |  | 0.34 nM |  |  | COc1ccc2c(c1F)C(=O)N(C[C@@]1(c3cc4nc(N)ccc4o3)NC(=O)NC1=O)C2 [Compound 1910] | IC50 [1, 7]: 153 nM; AUC ([3]; plasma 0.5-6 h): 0.351 µM·h
